Key:
[1] = test system: colic adenocarcinoma HT29 cells; assay: Cytotoxicity test in vitro on HT29 cells, MTT colorimetric assay; format: cell-based; settings: 48 hours of contact, HA derivatives in 5% glucosated solution, SN38 in DMSO
Method: Evaluation of the Antiproliferative Activity of the Ester Conjugate HA/SN38 having a Substitution Degree Equal to 10% and 15%, on the Cellular Line of Colic Adenocarcinoma HT29
Aliquots of the derivatives obtained from examples 1 and 2 are characterized by means of a cytotoxicity test in vitro on a line of colic tumoral cells called HT29. The comparison was effected with SN38 dissolved in DMSO. The HA derivatives are solubilized in a glucosated solution at 5% at a concentration of 5 mg/ml. The test is effected by depositing on a plate with 96 cavities, 3000 cells per cavity; after 24 hours of incubation at 37° C., the cells are put in contact with the solutions and after a further 48 hours the cell vitality is determined by means of a MTT colorimetric assay (Dezinot F. et al., J. Immunol Methods, 1986, 22(89):271-277).
The proliferation curves referring to the two ester conjugates of HA are shown in the graphs (on the left the cytotoxic activity of the derivative at 15%, on the right that at 10%), see FIG. 4.
By comparing the data of EC50 with SN38 in dimethylsulfoxide (DMSO) the following results are obtained: […]

[2] = Mathijssen R H et al., Clin Cancer Res, 2001; cited from earlier work
[3] = test system: DHD/K12 cells (MDR colon-rectum adenocarcinoma model); assay: Cytotoxicity test in DHD/K12 cells, LIVE/DEAD Cell Vitality Assay; format: cell-based, rat; settings: 0.25 μM, 48 hours of treatment
Method: The cellular line used derives from rats of the BDIX strain treated with 1,2-dimethylhydrazine.
In order to evaluate the degree of cellular vitality the LIVE/DEAD Cell Vitality Assay (Molecular Probes) was used, which allows metabolically active cells to be distinguished from dead cells: the latter emit green fluorescence at a nuclear level whereas live cells emit red fluorescence localized on the cellular membrane and in the cytoplasm. After colouring, the cells were analyzed using a confocal microscope and the percentage of live/dead cells was evaluated by counting a minimum of 500 live or dead cells per sample.

SMILES	EC50 [1] [nM]	antitumoral activity relative to commercial prodrug (Irinotecan) [2] [times]	cytotoxic effect at low concentration [3]
CCc1c2c(nc3ccc(O)cc13)-c1cc3c(c(=O)n1C2)COC(=O)[C@]3(O)CC [SN38 in DMSO, SN38]	5	100 to 1000	–
COc1cccc2c1C(=O)c1c(O)c3c(c(O)c1C2=O)C[C@@](O)(C(=O)CO)C[C@@H]3O[C@H]1C[C@H](N)[C@H](O)[C@H](C)O1 [doxorubicin]	–	–	does not have any cytotoxic effect

— patent US9687558B2, “Antitumoral bioconjugates of hyaluronic acid or its derivatives obtained by indirect chemical conjugation, and their use in the pharmaceutical field” (priority 2005, dated 2017)
